Values after ≈ are worked out from the molar mass of the structure shown.
What was measured:
[1] = tested on: WT clinical isolates; experiment: MIC broth microdilution, WT; format: cell-based; conditions: read-out: MIC WT, clinical isolates, IMM Univ. Zurich; wild type
Method in brief: (§1)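 Clinical isolates supplied by the Zurich Institute of Medical Microbiology were tested for MIC (μg/ml) using CLSI M07-A10 broth microdilution.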

[2] = tested on: clinical isolates carrying AAC(3)-IV; experiment: MIC broth microdilution, AAC(3)-IV; format: cell-based; conditions: for MIC: clinical isolates, IMM Univ. Zurich, AAC(3)-IV, read-out: MIC AAC(3)-IV
Method in brief: as §1

[3] = tested on: isolates carrying apmA; experiment: MIC broth microdilution, apmA; format: cell-based; conditions: apmA resistance gene
Method in brief: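 Clinical isolates carrying apmA, from the University of Zurich Institute of Medical Microbiology, were tested by broth microdilution following CLSI M07-A10; values are MICs in μg/ml.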

[4] = tested on: bacterial ribosomes; experiment: in-vitro translation assay, bacterial ribosomes; format: biochemical
Method in brief: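 Inhibitory potency was determined as IC50 in in-vitro translation systems based on bacterial ribosomes, human chimeric (mitochondrial-type) ribosomes or rabbit reticulocyte (cytosolic) ribosomes.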

[5] = tested on: human mitochondrial ribosomes; experiment: in-vitro translation assay, human mitochondrial (human chimeric) ribosomes; format: biochemical
Method in brief: (§2)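 Translation inhibition is measured in vitro with isolated ribosomes, and IC50 derived. The human cytosolic values actually use rabbit reticulocyte ribosomes, and the mitochondrial values use human chimeric ribosomes.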

[6] = tested on: human cytosolic ribosomes; experiment: in-vitro translation assay, human cytosolic ribosomes; format: biochemical
Method in brief: as §2

[7] = tested on: AG212, Escherichia coli ATCC25922; experiment: MIC reference strain AG212; format: cell-based; conditions: Escherichia coli; reference strain ATCC25922; read-out: MIC AG212 E. coli
Method in brief: (§3)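 The method determines minimal inhibitory concentrations using the standard CLSI microdilution procedure in liquid medium.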

[8] = tested on: AG215, Klebsiella pneumonia; experiment: MIC reference strain AG215; format: cell-based; conditions: Klebsiella pneumoniae, reference strain; read-out: MIC AG215 K. pneumonia
Method in brief: as §3

[9] = tested on: AG290, Enterobacter cloacae; experiment: MIC reference strain AG290; format: cell-based; conditions: Enterobacter cloacae; reference strain; read-out: MIC AG290 E. cloacae
Method in brief: as §3

[10] = tested on: AG220, Pseudomonas aeruginosa ATCC27853; experiment: MIC reference strain AG220; format: cell-based; conditions: Pseudomonas aeruginosa, ATCC27853, reference strain ATCC27853; read-out: MIC AG220 P. aeruginosa
Method in brief: as §3

[11] = tested on: AG225, Acinetobacter baumannii pittii; experiment: MIC reference strain AG225; format: cell-based; conditions: Acinetobacter baumannii, reference strain; read-out: MIC AG225 A. baumannii
Method in brief: as §3

[12] = tested on: ATCC19977 M. abcessus; experiment: MIC reference strain ATCC19977; format: cell-based; conditions: read-out: MIC ATCC19977 M. abcessus
Method in brief: (§4)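 Susceptibility was tested per CLSI aerobic dilution protocol using microbroth format, with the MIC taken as the end point.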

[13] = tested on: AG001 E. coli WT; experiment: Antibacterial activity, clinical isolate AG001; format: cell-based; set-up: unit not given here
Method in brief: as §4

[14] = tested on: AG055 E. coli WT; experiment: Antibacterial activity, clinical isolate AG055; format: cell-based; set-up: unit not given here
Method in brief: as §4

[15] = tested on: AG003 E. coli AAC(3)-II; experiment: Antibacterial activity, clinical isolate AG003; format: cell-based
Method in brief: as §4

[16] = tested on: AG173 E. coli AAC(3)-IV; experiment: Antibacterial activity, clinical isolate AG173; format: cell-based
Method in brief: as §4

[17] = tested on: AG163 E. coli APH(3′)-I; experiment: Antibacterial activity, clinical isolate AG163; format: cell-based
From the text: (§5) Minimal inhibitory concentrations (MIC) have been determined by broth microdilution assays (CLSI. Methods for Dilution Antimicrobial Susceptibility Tests for Bacteria That Grow Aerobically; Approved Standard—Tenth Edition. CLSI document M07-A10. Wayne, Pa.: Clinical and Laboratory Standards Institute; 2015.).
Table 4 and 5 show the antibacterial activity of the compounds of the invention against bacterial reference strains (table 4) and against representative clinical isolates (table 5).

[18] = tested on: AG038 MRSA; experiment: Antibacterial activity, clinical isolate AG038; format: cell-based; set-up: unit not given here
Method in brief: as §4

[19] = tested on: AG039 MRSA AAC(6′)-I ANT(4′)-I; experiment: Antibacterial activity, clinical isolate AG039; format: cell-based
Method in brief: as §4

[20] = tested on: AG042 MRSA AAC(6′)-I ANT(4′)-I APH(2′); experiment: Antibacterial activity, clinical isolate AG042; format: cell-based; set-up: unit not given here
Method in brief: as §4

[21] = tested on: AG031 P. aer. APH(3′)-II; experiment: Antibacterial activity, clinical isolate AG031; format: cell-based; set-up: unit not given here
Method in brief: as §4

[22] = tested on: AG032 P. aer. APH(3′)-II; experiment: Antibacterial activity, clinical isolate AG032; format: cell-based; set-up: unit not given here
Method in brief: as §4

[23] = tested on: AG033 P. aer. APH(3′)-II AAC(6′)-I; experiment: Antibacterial activity, clinical isolate AG033; format: cell-based; set-up: unit not given here
Method in brief: as §4

[24] = tested on: Engineered E. coli pH430 WT; experiment: Activity, engineered E. coli pH430 WT; format: cell-based; conditions: wild type
Method in brief: (§6)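 Susceptibility was measured as minimal inhibitory concentration using a standardized broth microdilution protocol (CLSI document M07-A10).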

[25] = tested on: Engineered E. coli AG103 armA; experiment: Activity against G1405-methylated 16S-rRNA, E. coli AG103 armA; format: cell-based
Method in brief: as §6

[26] = tested on: Engineered E. coli pH424 armA; experiment: Activity against G1405-methylated 16S-rRNA, E. coli pH424 armA; format: cell-based
Method in brief: as §6

[27] = tested on: Engineered E. coli pH425 rmtB; experiment: Activity against G1405-methylated 16S-rRNA, E. coli pH425 rmtB; format: cell-based
Method in brief: as §6

[28] = tested on: Engineered E. coli pH426 rmtC; experiment: Activity against G1405-methylated 16S-rRNA, E. coli pH426 rmtC; format: cell-based
Method in brief: as §6

[29] = tested on: Engineered E. coli pH427 rmtF; experiment: Activity against G1405-methylated 16S-rRNA, E. coli pH427 rmtF; format: cell-based
Method in brief: as §6

[30] = tested on: eukaryotic ribosomes; experiment: in-vitro translation assays, bacterial versus eukaryotic ribosomes; format: biochemical
From the text: IC50 values for bacterial, human chimeric, and rabbit reticulocyte ribosomes have been determined by in-vitro translation assays as described previously (Proc. Nat. Ac. Sci USA 2012, 109(27):10984-10989).

[31] = tested on: clinical isolates carrying APH(3′)-I; experiment: MIC broth microdilution, APH(3′)-I; format: cell-based; conditions: IMM Univ. Zurich
From the text: as §5
(§7) Minimal inhibitory concentrations (MICs, […]) against clinical isolates from Institute of Medical Microbiology, Univ. Zurich, and the IC50 values for bacterial, human mitochondrial and human cytosolic ribosomes are indicated.

[32] = tested on: clinical isolates carrying APH(3′)-II; experiment: MIC broth microdilution, APH(3′)-II; format: cell-based; conditions: clinical isolates, IMM Univ. Zurich; APH(3′)-II; read-out: MIC APH(3′)-II
From the text: as §5, §7

[33] = tested on: clinical isolates carrying APH(3′)-III; experiment: MIC broth microdilution, APH(3′)-III; format: cell-based; conditions: IMM Univ. Zurich
From the text: as §5, §7

[34] = tested on: clinical isolates carrying APH(3′)-VI; experiment: MIC broth microdilution, APH(3′)-VI; format: cell-based; conditions: IMM Univ. Zurich
From the text: as §5, §7

[35] = tested on: APH(3′, 5″) resistance determinant; experiment: Susceptibility to the APH(3′, 5″) resistance determinant; format: cell-based
From the text: as §5
The introduction of a formamido group results in compounds that display increased selectivity for the bacterial ribosome over the mitochondrial (wild type and A1555G mutant) ribosomes, predictive of reduced ototoxicity.

With `CNC1C(OC2OC(CO)C(N)C(O)C2O)OC2CC(N)C(OC3C(N)CC(N)C(OCCO)C3O)OC2C1O` (centres unmarked) [DC167, 6-O-(2-Hydroxyethyl)-apramycin] the MIC [1] was 8 µg/mL (≈ 13.7 µM), the MIC [2] was greater than 32 µg/mL and the MIC [3] was greater than 64 µg/mL. The IC50 [4] was 0.18 µM, the IC50 [5] was 379 µM and the IC50 [6] was 382 µM. The MIC [7] was 16 µg/mL, the MIC [8] was 4 µg/mL and the MIC [9] was 8 µg/mL. It also gave an MIC [10] of 32 µg/mL, an MIC [11] of 16 µg/mL and an MIC [12] of 2 µg/mL (≈ 3.43 µM). The “Antibacterial activity AG001 E. coli WT” value [13] was 16, the “Antibacterial activity AG055 E. coli WT” value [14] was 16 and the “Antibacterial activity AG003 E. coli AAC(3)-II” value [15] was 16. The “Antibacterial activity AG173 E. coli AAC(3)-IV” value [16] was greater than 128, the “Antibacterial activity AG163 E. coli APH(3′)-I” value [17] was 8-16 and the “Antibacterial activity AG038 MRSA” value [18] was 16-32. For the same compound, the “Antibacterial activity AG039 MRSA AAC(6′)-I ANT(4′)-I” value [19] was 16-32, the “Antibacterial activity AG042 MRSA AAC(6′)-I ANT(4′)-I APH(2′)” value [20] was 64 and the “Antibacterial activity AG031 P. aer. APH(3′)-II” value [21] was 32-64. For the same compound, the “Antibacterial activity AG032 P. aer. APH(3′)-II” value [22] was 32-64, the “Antibacterial activity AG033 P. aer. APH(3′)-II AAC(6′)-I” value [23] was 64-128 and the “Activity E. coli pH430 WT” value [24] was 8. The “Activity E. coli AG103 armA” value [25] was 4, the “Activity E. coli pH424 armA” value [26] was 8 and the “Activity E. coli pH425 rmtB” value [27] was 16. For the same compound, the “Activity E. coli pH426 rmtC” value [28] was 16, the “Activity E. coli pH427 rmtF” value [29] was 16 and the “target specificity for bacterial versus human rRNA” value [30] was “increased target specificity”.

`CNC1C(OC2OC(CO)C(N)C(O)C2O)OC2CC(N)C(OC3C(N)CC(N)C(O)C3OC3OC(CO)C(OC4OC(CN)C(O)C(O)C4N)C3O)OC2C1O` (stereo not drawn) [DC138, 5-O-β-(Paromobiosyl) apramycin] was tested, and the “activity against the IMM clinical isolates carrying the gene for AAC(3)-IV” value [2] was “excellent antiribosomal and antibacterial activity”, the MIC [2] was greater than 32 µg/mL and the MIC [31] was 16 µg/mL (≈ 19.2 µM). It also gave an MIC [32] of 2 µg/mL (≈ 2.4 µM), an MIC [33] of 1 to 2 µg/mL (≈ 1.2 to 2.4 µM) and an MIC [34] of 4 µg/mL (≈ 4.81 µM). It also gave an IC50 [4] of 0.1 µM, an IC50 [5] of 2.2 µM and an IC50 [6] of 18 µM. The MIC [7] was 2 µg/mL, the MIC [8] was 1 µg/mL and the MIC [9] was 2 µg/mL. For the same compound, the MIC [10] was 16 µg/mL, the MIC [11] was 4 µg/mL and the “Antibacterial activity AG001 E. coli WT” value [13] was 4. For the same compound, the “Antibacterial activity AG055 E. coli WT” value [14] was 8, the “Antibacterial activity AG003 E. coli AAC(3)-II” value [15] was 4 and the “Antibacterial activity AG173 E. coli AAC(3)-IV” value [16] was 1-2. The “Antibacterial activity AG163 E. coli APH(3′)-I” value [17] was 8, the “Antibacterial activity AG038 MRSA” value [18] was 2-4 and the “Antibacterial activity AG039 MRSA AAC(6′)-I ANT(4′)-I” value [19] was 2-4. The “Antibacterial activity AG042 MRSA AAC(6′)-I ANT(4′)-I APH(2′)” value [20] was 2, the “Antibacterial activity AG031 P. aer. APH(3′)-II” value [21] was 32-64 and the “Antibacterial activity AG032 P. aer. APH(3′)-II” value [22] was 64. The “Antibacterial activity AG033 P. aer. APH(3′)-II AAC(6′)-I” value [23] was 64, the “Activity E. coli pH430 WT” value [24] was 2 and the “Activity E. coli AG103 armA” value [25] was less than 0.125. For the same compound, the “Activity E. coli pH424 armA” value [26] was 1, the “Activity E. coli pH425 rmtB” value [27] was 1 and the “Activity E. coli pH426 rmtC” value [28] was 1. The “Activity E. coli pH427 rmtF” value [29] was 1 and the “susceptibility to the APH(3′, 5″) resistance determinant” value [35] was “susceptible”.
